Assay results from US12162872B2, “Cycloalkylurea derivative” (Sumitomo Pharma Co., Ltd., priority 2019, dated 2024).

What follows are molecules tested against T1, Human orexin receptor type 2 (Homo sapiens, UniProt O43614) (assay: Test 1: Evaluation of agonist activity for orexin receptor type 2 (aequorin luminescence, intracellular calcium mobilization in CHO cells)). Conditions: relative percentage of luminescence for the luminescence (100%) of Orexin A (100 pM); CHO cells transiently expressing human orexin receptor type 2 and apoaequorin; Orexin A Lot. 641114.
T1 construct: expressed in transfected cells; host or cells: CHO cells (transient expression)
T1 sequence (O43614 1-444): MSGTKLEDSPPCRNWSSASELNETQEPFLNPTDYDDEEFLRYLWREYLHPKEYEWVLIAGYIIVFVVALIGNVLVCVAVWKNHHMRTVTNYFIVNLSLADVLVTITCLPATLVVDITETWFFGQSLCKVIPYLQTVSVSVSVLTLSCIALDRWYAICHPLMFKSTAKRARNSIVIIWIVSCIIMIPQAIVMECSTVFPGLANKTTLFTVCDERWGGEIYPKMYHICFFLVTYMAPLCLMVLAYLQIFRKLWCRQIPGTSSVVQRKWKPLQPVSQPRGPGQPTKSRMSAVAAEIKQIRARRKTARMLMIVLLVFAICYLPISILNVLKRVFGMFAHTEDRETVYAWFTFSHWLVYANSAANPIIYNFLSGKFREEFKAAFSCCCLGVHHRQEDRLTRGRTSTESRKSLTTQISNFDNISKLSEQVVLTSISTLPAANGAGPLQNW
Assay type: cell-based
Outline: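 CHO cells transiently expressing human OX2 receptor and apoaequorin, seeded 16-22 h, loaded with 1 μM coelenterazine hcp for 2 h at room temperature. Compound added in Hanks/20 mM HEPES/0.1% BSA, 0.1% DMSO final, and calcium luminescence measured. Activity expressed as percent of the 100 pM Orexin A response.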
With CC(C)N1C[C@H](O[C@H]2CCCC(F)(F)[C@@H]2NC(=O)N2CCC(C)(c3noc(C4CC4)n3)CC2)[C@@H](F)C1 [Example 75, 4-(5-cyclopropyl-1,2,4-oxadiazol-3-yl)-N-[(1R,6S)-2,2-difluoro-6-{[(3S,4S)-4-fluoro-1-(propan-2-yl)pyrrolidin-3-yl]oxy}cyclohexyl]-4-methylpiperidine-1-carboxamide] the “agonist activity (%)” value was 141%. For CC(C)N1C[C@@H](O[C@H]2CCCC(F)(F)[C@@H]2NC(=O)N2CCC(C)(c3noc(C4CC4)n3)CC2)C(F)(F)C1 [Example 76, 4-(5-cyclopropyl-1,2,4-oxadiazol-3-yl)-N-[(1R,6S)-6-{[(3R)-4,4-difluoro-1-(propan-2-yl)pyrrolidin-3-yl]oxy}-2,2-difluorocyclohexyl]-4-methylpiperidine-1-carboxamide], the “agonist activity (%)” value was 145%. With CC(C)N1CCN([C@H]2CCCC(F)(F)[C@@H]2NC(=S)N2CCC(C)(c3noc(C4CC4)n3)CC2)CC1 [Example 80, 4-(5-cyclopropyl-1,2,4-oxadiazol-3-yl)-N-{(1R,6S)-2,2-difluoro-6-[4-(propan-2-yl)piperazin-1-yl]cyclohexyl}-4-methylpiperidine-1-carbothioamide] the “agonist activity (%)” value was 178%.
